According to US9309196B2, “Indole derivatives and process for their preparation” (Ramot at Tel-Aviv University Ltd., priority 2010, dated 2016):

target: T1, monomeric Aβ1-42 (Homo sapiens, UniProt P05067); test: Surface plasmon resonance (SPR) binding of compounds to immobilized Aβ1-42 monomers (Biacore X100); conditions: compounds 0.1 nM to 300 nM, 25° C., steady-state analysis, repeated tests
T1 construct: Aβ1-42 (#60-0-80, American Peptide, Sunnyvale, Calif. USA); purchased American Peptide, Sunnyvale, Calif; USA #60-0-80
T1 sequence (P05067 672-713 limits assumed): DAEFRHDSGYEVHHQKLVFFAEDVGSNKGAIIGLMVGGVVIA
Procedure: Aβ monomers were covalently coupled to one flow cell of CM7 sensor chips (GE Lifesciences, Uppsala, Sweden) via primary amines using the Amine Coupling Kit (GE Lifesciences, Uppsala, Sweden). As a control, ethanolamine was immobilized on the reference channel. […] One RU represents about 1 pg/mm^2 of the analytes on the surface matrix of the sensor chip.
Concentrations were tested in duplicate.
The RUs elicited by the compound injected into the ethanolamine control flow cell was set as reference response and subtracted from the RUs elicited by the same compound injected to the Aβ saturated flow cell. The relationships between each RU obtained at the steady state of binding (plateau of the binding curve) and each concentration of the compound were plotted.
After the analyte injection was stopped, HBS-EP buffer was flowed over the chip for 180 s to allow the bound analyte to dissociate from the immobilized Aβ and the dissociation curves were obtained.
The dissociation equilibrium constant KD of the analyte to the immobilized Aβ was determined from the steady-state levels estimating the maximum RU Rmax and calculating the KD as the concentration of the compound that elicited one-half of the Rmax.

Row | Compound | IC50
1 | CC(C)(/C=C/[C@H](N)Cc1c[nH]c2ccccc12)C(N)=O [Example 3, (E)-(R)-5-Amino-6-(1H-indol-3-yl)-2,2-dimethyl-hex-3-enoic acid amide] | 0.5 nM
2 | CNC(=O)C(C)(C)/C=C/[C@H](N)Cc1c[nH]c2ccccc12 [Example 4, (E)-(R)-5-Amino-6-(1H-indol-3-yl)-2,2-dimethyl-hex-3-enoic-acid-methylamide] | 6.8 nM
3 | CC(=O)N[C@@H](/C=C/C(C)(C)C(=O)O)Cc1c[nH]c2ccccc12 [Example 5, (E)-(R)-5-Acetylamino-6-(1H-indol-3-yl)-2,2-dimethyl-hex-3-enoic-acid] | 42.1 nM
